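Dose response: 5 concentrations. Exposure: 48 h. Format: 96-well plates. Endpoint: linear interpolation; highest concentration if not reached. GI50 = concentration required for 50% inhibition of growth. TGI marks complete inhibition of growth.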
Experiments:
Experiment in all cases: NCI anticancer screen, dose series, 48 h
HS 578T breast = test system: HS 578T breast
786-0 renal = test system: 786-0 renal
T-47D breast = test system: T-47D breast
NCI-H460 lung = test system: NCI-H460 lung
MDA-MB-435 = test system: MDA-MB-435
M14 melanoma = test system: M14 melanoma
EKVX NSCLC = test system: EKVX NSCLC
ACHN renal = test system: ACHN renal
RXF 393 renal = test system: RXF 393 renal
HL-60(TB) leukemia = test system: HL-60(TB) leukemia
BT-549 breast = test system: BT-549 breast
SF-539 CNS = test system: SF-539 CNS
OVCAR-5 ovarian = test system: OVCAR-5 ovarian
TK-10 renal = test system: TK-10 renal
NCI-H522 lung = test system: NCI-H522 lung
HT29 colon = test system: HT29 colon
PC-3 prostate = test system: PC-3 prostate
DU-145 prostate = test system: DU-145 prostate
A498 renal = test system: A498 renal
HCC-2998 colon = test system: HCC-2998 colon
SNB-19 CNS = test system: SNB-19 CNS
UACC-257 melanoma = test system: UACC-257 melanoma
NCI-H226 lung = test system: NCI-H226 lung
SK-MEL-5 melanoma = test system: SK-MEL-5 melanoma
CAKI-1 renal = test system: CAKI-1 renal
UO-31 renal = test system: UO-31 renal
MCF7 breast = test system: MCF7 breast
SF-295 CNS = test system: SF-295 CNS
CCRF-CEM leukemia = test system: CCRF-CEM leukemia
LOX IMVI melanoma = test system: LOX IMVI melanoma
MOLT-4 leukemia = test system: MOLT-4 leukemia
MALME-3M melanoma = test system: MALME-3M melanoma
RPMI-8226 leukemia = test system: RPMI-8226 leukemia
HOP-62 NSCLC = test system: HOP-62 NSCLC
OVCAR-3 ovarian = test system: OVCAR-3 ovarian
OVCAR-4 ovarian = test system: OVCAR-4 ovarian
SF-268 CNS = test system: SF-268 CNS
SK-MEL-2 melanoma = test system: SK-MEL-2 melanoma
SK-MEL-28 melanoma = test system: SK-MEL-28 melanoma
HOP-92 NSCLC = test system: HOP-92 NSCLC
SN12C renal = test system: SN12C renal
SK-OV-3 ovarian = test system: SK-OV-3 ovarian
KM12 colon = test system: KM12 colon
NCI-H23 lung = test system: NCI-H23 lung
OVCAR-8 ovarian = test system: OVCAR-8 ovarian
HCT-15 colon = test system: HCT-15 colon
HCT-116 colon = test system: HCT-116 colon
COLO 205 colon = test system: COLO 205 colon
NCI/ADR-RES ovarian = test system: NCI/ADR-RES ovarian
IGROV1 ovarian = test system: IGROV1 ovarian
A549 NSCLC = test system: A549 NSCLC
U251 CNS = test system: U251 CNS
K-562 leukemia = test system: K-562 leukemia
SNB-75 CNS = test system: SNB-75 CNS
MDA-MB-231 breast = test system: MDA-MB-231 breast
UACC-62 melanoma = test system: UACC-62 melanoma
SW-620 colon = test system: SW-620 colon
SR leukemia = test system: SR leukemia

O=C(NNc1nc2cc(F)ccc2n2c(CN3CCOCC3)ccc12)c1ccccc1
GI50 (HS 578T breast): 1.51 µM
TGI (HS 578T breast): 8.05 µM
GI50 (786-0 renal): 0.305 µM
TGI (786-0 renal): 1.98 µM
GI50 (T-47D breast): 0.36 µM
TGI (T-47D breast): 2.24 µM
GI50 (NCI-H460 lung): 0.0724 µM
TGI (NCI-H460 lung): 1.32 µM
GI50 (MDA-MB-435): 0.603 µM
TGI (MDA-MB-435): 2.4 µM
GI50 (M14 melanoma): 0.173 µM
TGI (M14 melanoma): 1.26 µM
GI50 (EKVX NSCLC): 0.142 µM
TGI (EKVX NSCLC): 1.7 µM
GI50 (ACHN renal): 0.079 µM
TGI (ACHN renal): 1.41 µM
GI50 (RXF 393 renal): 0.363 µM
TGI (RXF 393 renal): 2.06 µM
GI50 (HL-60(TB) leukemia): 0.25 µM
TGI (HL-60(TB) leukemia): 0.931 µM
GI50 (BT-549 breast): 0.559 µM
TGI (BT-549 breast): 6.57 µM
GI50 (SF-539 CNS): 0.273 µM
TGI (SF-539 CNS): 1.39 µM
GI50 (OVCAR-5 ovarian): 0.474 µM
TGI (OVCAR-5 ovarian): 3.45 µM
GI50 (TK-10 renal): 0.276 µM
TGI (TK-10 renal): 7.07 µM
GI50 (NCI-H522 lung): 0.369 µM
TGI (NCI-H522 lung): 3.52 µM
GI50 (HT29 colon): 0.449 µM
TGI (HT29 colon): 7.48 µM
GI50 (PC-3 prostate): 0.339 µM
TGI (PC-3 prostate): 3.05 µM
GI50 (DU-145 prostate): 0.358 µM
TGI (DU-145 prostate): 4.78 µM
GI50 (A498 renal): 0.495 µM
TGI (A498 renal): 2.26 µM
GI50 (HCC-2998 colon): 0.569 µM
TGI (HCC-2998 colon): 3.07 µM
GI50 (SNB-19 CNS): 0.311 µM
TGI (SNB-19 CNS): 2.27 µM
GI50 (UACC-257 melanoma): 0.456 µM
TGI (UACC-257 melanoma): 3.85 µM
GI50 (NCI-H226 lung): 0.45 µM
TGI (NCI-H226 lung): 2.4 µM
GI50 (SK-MEL-5 melanoma): 0.438 µM
TGI (SK-MEL-5 melanoma): 2.06 µM
GI50 (CAKI-1 renal): 0.223 µM
TGI (CAKI-1 renal): 1.5 µM
GI50 (UO-31 renal): 0.0574 µM
TGI (UO-31 renal): 1.3 µM
GI50 (MCF7 breast): 0.219 µM
TGI (MCF7 breast): 1.31 µM
GI50 (SF-295 CNS): 0.181 µM
TGI (SF-295 CNS): 1.52 µM
GI50 (CCRF-CEM leukemia): 0.0978 µM
TGI (CCRF-CEM leukemia): 4.44 µM
GI50 (LOX IMVI melanoma): 0.119 µM
TGI (LOX IMVI melanoma): 1.43 µM
GI50 (MOLT-4 leukemia): 0.175 µM
TGI (MOLT-4 leukemia): 2.18 µM
GI50 (MALME-3M melanoma): 0.379 µM
TGI (MALME-3M melanoma): 1.81 µM
GI50 (RPMI-8226 leukemia): 0.263 µM
TGI (RPMI-8226 leukemia): 2.6 µM
GI50 (HOP-62 NSCLC): 0.117 µM
TGI (HOP-62 NSCLC): 4.03 µM
GI50 (OVCAR-3 ovarian): 0.242 µM
TGI (OVCAR-3 ovarian): 1.65 µM
GI50 (OVCAR-4 ovarian): 0.152 µM
TGI (OVCAR-4 ovarian): 1.39 µM
GI50 (SF-268 CNS): 0.243 µM
TGI (SF-268 CNS): 2.69 µM
GI50 (SK-MEL-2 melanoma): 1.04 µM
TGI (SK-MEL-2 melanoma): 8.06 µM
GI50 (SK-MEL-28 melanoma): 0.29 µM
TGI (SK-MEL-28 melanoma): 1.78 µM
GI50 (HOP-92 NSCLC): 0.791 µM
TGI (HOP-92 NSCLC): 2.87 µM
GI50 (SN12C renal): 0.399 µM
TGI (SN12C renal): 2.18 µM
GI50 (SK-OV-3 ovarian): 0.405 µM
TGI (SK-OV-3 ovarian): 3.39 µM
GI50 (KM12 colon): 0.369 µM
TGI (KM12 colon): 2.45 µM
GI50 (NCI-H23 lung): 0.567 µM
TGI (NCI-H23 lung): 2.7 µM
GI50 (OVCAR-8 ovarian): 0.321 µM
TGI (OVCAR-8 ovarian): 7.66 µM
GI50 (HCT-15 colon): 0.0577 µM
TGI (HCT-15 colon): 1.41 µM
GI50 (HCT-116 colon): 0.139 µM
TGI (HCT-116 colon): 1.38 µM
GI50 (COLO 205 colon): 0.261 µM
TGI (COLO 205 colon): 1.56 µM
GI50 (NCI/ADR-RES ovarian): 0.211 µM
TGI (NCI/ADR-RES ovarian): 2.37 µM
GI50 (IGROV1 ovarian): 0.139 µM
TGI (IGROV1 ovarian): 1.47 µM
GI50 (A549 NSCLC): 0.303 µM
TGI (A549 NSCLC): 2.25 µM
GI50 (U251 CNS): 0.207 µM
TGI (U251 CNS): 2.19 µM
GI50 (K-562 leukemia): 0.336 µM
TGI (K-562 leukemia): 4.21 µM
GI50 (SNB-75 CNS): 0.3 µM
TGI (SNB-75 CNS): 3.63 µM
GI50 (MDA-MB-231 breast): 0.443 µM
TGI (MDA-MB-231 breast): 2.45 µM
GI50 (UACC-62 melanoma): 0.244 µM
TGI (UACC-62 melanoma): 1.14 µM
GI50 (SW-620 colon): 0.33 µM
TGI (SW-620 colon): 2.11 µM
GI50 (SR leukemia): 0.0639 µM

Source: PubChem BioAssay (NCI)
